Patent publication USRE46942E1, “4-piperidinyl compounds for use as tankyrase inhibitors” (NOVARTIS AG, priority 2011, dated 2018)

Columns and labels:
[1] = system: Axin2 protein in colorectal cell line SW480; assay: Cellular ELISA assay for stabilizing the Axin2 protein; assay type: cell-based; conditions: Homo sapiens; SW480 cells, 24 hrs; read-out: Axin AC50
Protocol: Compound activity in stabilizing the Axin2 protein was measured by Sandwich Enzyme-Linked Immuosorbent (ELISA) assay in the colorectal cell line SW480. 30,000 SW480 cells were seeded per well in 96-well plate and incubated overnight prior to compound treatment. […] Cells were then washed with 100 μL of cold Phosphate Buffer Saline (PBS), and lysed in 125 μl of cold 1× lysis buffer (Cell Signaling Technology, 9803) supplemented with Protease inhibitor (Roche, 11836170) and Phosphatase inhibitors (Sigma, P2850, P5726). […] After blocking, plates were then washed three times with 300 μl/well of wash solution. 100 μL of prepared SW480 cell lysate was then added to each well and incubated at room temperature for 2 hours while shaking gently. After washing, 100 μL of Biotinylated anti-Axin2 antibody (CST, 2151) was added to each well and incubated room temperature for 2 hours. 100 μL of Streptavidin-HRP (R&D systems, DY998) diluted 1:200 in 1% BSA/PBS was then added in each well and incubate for 30 mins at R/T in the dark. Signal was detected by Chemiluminescence (Pierce SuperSignal ELISA Femto #3704), and measured on PerkinElmer Wallac 1420 plate reader.

[2] = system: Non-small lung cancer ABC-1 cells; assay: Cellular proliferation assay (CellTiter-Glo); assay type: cell-based; conditions: Homo sapiens, 72 h, 3 days of compound treatment
Protocol: Non-small lung cancer ABC-1 cells were plated at 5000 cells per well in 96-well plates and treated with 8 serial compound dilutions starting from 10 μM as the highest concentration. Viable cells were measured after 3 days of compound treatment using the CellTiter-Glo assay (Promega, G7570). Assay was performed following the manufacture protocol.

[3] = system: Herpes Simplex Virus (HSV); conditions: cited from earlier work
[4] = system: Wnt ligand-induced signaling in HEK293 cells; assay: Wnt-responsive Super-TOp-Flash (STF) luciferase reporter gene assay; assay type: cell-based; conditions: Homo sapiens, Wnt3A condition medium
Protocol: Compound activity in inhibiting Wnt ligand-induced signaling was measured using a Wnt-responsive Super-TOp-Flash (STF) luciferase reporter gene assay in HEK293 cells. On day 1 of the assay, cells were plated at a density of 8000 cells per well of 384-well plate in 25 μl medium containing 5% fetal bovine serum (FBS). […] On the third day, the luciferase activity was measured by the Bright-Glo™ Luciferase Assay System following manufacture's protocol (Promega, E2620).

| SMILES | AC50 [1] [nM] | IC50 [2] [nM] | viral growth [3] | IC50 [4] [nM] |
| --- | --- | --- | --- | --- |
| COc1ccc(C(=O)C2CCN([C@H]3CCN(CC(=O)Nc4nnc5n4CCS5)C3=O)CC2)cc1 [Example 33, N-(5,6-dihydrothiazolo[2,3-c][1,2,4]triazol-3-yl)-2-((S)-3-(4-(4-methoxybenzoyl)piperidin-1-yl)-2-oxopyrrolidin-1-yl)acetamide] | 1340 ± 110 | 1610 |  |  |
| Oc1nc(-c2ccc(C(F)(F)F)cc2)nc2c1CSCC2 [XAV939] |  |  | decreased viral growth |  |
| COc1ccc(C(=O)C2CCN([C@@H]3CCN(CC(=O)Nc4nnc5n4CCS5)C3=O)CC2)cc1 (single isomer, unassigned) [Example 34] | 78 ± 6 | 49 |  |  |
| COc1ccc2c(c1)CC1(CCN([C@@H]3CCN(Cc4nc5c(c(=O)[nH]4)COCC5)C3=O)CC1)C2=O [Example 17, (R)-2-((3-(5-methoxy-1-oxo-1,3-dihydrospiro[indene-2,4′-piperidine]-1′-yl)-2-oxopyrrolidin-1-yl)methyl)-7,8-dihydro-3H-pyrano[4,3-d]pyrimidin-4(5H)-one] | 1790 ± 140 | 2000 ± 900 |  | 396 ± 10 |
| COc1ccc2c(c1)CC1(CCN([C@H]3CCN(Cc4nc5c(c(=O)[nH]4)COCC5)C3=O)CC1)C2=O [Example 16, (S)-2-((3-(5-methoxy-1-oxo-1,3-dihydrospiro[indene-2,4′-piperidine]-1′-yl)-2-oxopyrrolidin-1-yl)methyl)-7,8-dihydro-3H-pyrano[4,3-d]pyrimidin-4(5H)-one] | 7 ± 1 | 82 |  | 1.7 ± 0.2 |
